Results taken from patent US20260035340A1, “INHIBITORS OF AKR1C3 AND METHODS OF USE” (BOARD OF REGENTS OF THE UNIVERSITY OF NEBRASKA, priority 2022, published 2026).
Where two headings read alike, the source gives them in different places.

How the values were obtained:
AKR1C2 = AKR1C2 (Homo sapiens (Human), UniProt P52895); assay: AKR enzyme inhibition assay, NADP+ dependent oxidation of S-tetralol, AKR1C2 counter-screen; assay type: biochemical; conditions: Table 2; recombinant enzyme, S-tetralol at Km; read-out: IC50 ± SD AKR1C2
AKR1C2, sequence (P52895 whole entry): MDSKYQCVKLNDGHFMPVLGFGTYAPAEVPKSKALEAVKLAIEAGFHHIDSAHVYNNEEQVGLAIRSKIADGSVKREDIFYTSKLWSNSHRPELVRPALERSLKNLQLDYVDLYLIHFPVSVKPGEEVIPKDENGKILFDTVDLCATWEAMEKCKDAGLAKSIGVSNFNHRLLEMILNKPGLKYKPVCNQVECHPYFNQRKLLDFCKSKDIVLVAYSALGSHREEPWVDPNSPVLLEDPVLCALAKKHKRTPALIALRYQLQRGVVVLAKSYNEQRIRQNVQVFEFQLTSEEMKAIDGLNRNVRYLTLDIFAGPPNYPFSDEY
Method: (§4) Structure-Activity Relationship: The ability of compounds to inhibit AKR1C3 in the first instance were determined by measuring the NADP+ dependent oxidation of S-tetralol catalyzed by recombinant enzyme as described herein. […] Assay of enzyme activity: The dehydrogenase activities of AKR1C1, AKR1C2, and AKR1C3 were determined by measuring the formation of NADH formation at 340 nm using Beckman DU640 spectrophotometer. […] After continuously monitoring for 5 min, the increase in UV absorption using different concentrations of enzyme were recorded to calculate the initial velocity and determine enzyme specific activity. IC50 value determination: The inhibitory potency for each compound was represented by IC50 value and measured as described before. […] The concentration of S-tetralol used in the assays for each AKR1C isoform was equal to the Km value for the respective enzyme so that IC50 values could be directly compared assuming a competitive pattern of inhibition. […] In this equation, “range” is the fitted uninhibited value minus the “background”, and “S” is a slope factor. “I” is the concentration of inhibitor. The equation assumes that y falls with increasing “I”.

AKR1C4 = AKR1C4 (Homo sapiens (Human), UniProt P17516); assay: AKR enzyme inhibition assay, AKR1C4; assay type: biochemical; conditions: Table 2; recombinant enzyme; read-out: IC50 ± SD AKR1C4
AKR1C4, sequence (P17516 whole entry): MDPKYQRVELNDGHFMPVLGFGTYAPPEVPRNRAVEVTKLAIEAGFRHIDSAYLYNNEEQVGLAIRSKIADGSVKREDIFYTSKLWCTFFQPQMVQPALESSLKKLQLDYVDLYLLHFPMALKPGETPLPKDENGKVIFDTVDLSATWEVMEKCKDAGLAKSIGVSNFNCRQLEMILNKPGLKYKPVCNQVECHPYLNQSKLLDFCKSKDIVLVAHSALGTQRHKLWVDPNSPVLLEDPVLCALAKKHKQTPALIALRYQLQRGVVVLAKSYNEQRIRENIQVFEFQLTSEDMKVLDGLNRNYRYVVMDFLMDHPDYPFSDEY
Method: (§5) Assay of enzyme activity: The dehydrogenase activities of AKR1C1, AKR1C2, and AKR1C3 were determined by measuring the formation of NADH formation at 340 nm using Beckman DU640 spectrophotometer. […] After continuously monitoring for 5 min, the increase in UV absorption using different concentrations of enzyme were recorded to calculate the initial velocity and determine enzyme specific activity. IC50 value determination: The inhibitory potency for each compound was represented by IC50 value and measured as described before. […] The concentration of S-tetralol used in the assays for each AKR1C isoform was equal to the Km value for the respective enzyme so that IC50 values could be directly compared assuming a competitive pattern of inhibition. […] In this equation, “range” is the fitted uninhibited value minus the “background”, and “S” is a slope factor. “I” is the concentration of inhibitor. The equation assumes that y falls with increasing “I”.

AKR1C1 = AKR1C1 (Homo sapiens (Human), UniProt Q04828); assay: AKR enzyme inhibition assay, NADP+ dependent oxidation of S-tetralol, AKR1C1; assay type: biochemical; conditions: Table 2; recombinant enzyme, S-tetralol at Km; read-out: IC50 ± SD AKR1C1
AKR1C1, sequence (Q04828 whole entry): as the sequence (P52895 whole entry) above, with V38T, H47R, V54L, S87C, M151V, H170R, L172Q counted along it
Method: as §5

AKR1C3 = AKR1C3 (Homo sapiens (Human), UniProt P42330); assay: AKR enzyme inhibition assay, NADP+ dependent oxidation of S-tetralol, AKR1C3; assay type: biochemical; conditions: for selectivity over AKR1C2: AKR1C3 over AKR1C2; for Selectivity 1C2:1C3: ratio of AKR1C2 to AKR1C3 IC50
AKR1C3, sequence (P42330 whole entry): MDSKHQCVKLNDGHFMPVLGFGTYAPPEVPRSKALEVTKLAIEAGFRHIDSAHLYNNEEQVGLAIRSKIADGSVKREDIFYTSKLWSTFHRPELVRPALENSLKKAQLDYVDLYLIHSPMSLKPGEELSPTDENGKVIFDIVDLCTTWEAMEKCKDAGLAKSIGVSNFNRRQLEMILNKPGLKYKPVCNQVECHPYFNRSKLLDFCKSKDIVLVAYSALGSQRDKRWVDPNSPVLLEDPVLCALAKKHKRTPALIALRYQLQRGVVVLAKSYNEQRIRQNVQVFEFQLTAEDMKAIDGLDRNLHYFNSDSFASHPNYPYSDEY
Method: as §4

[1] = In vitro stability in mouse plasma; assay type: in vitro ADME; conditions: mouse plasma
Text: (§1) Liquid chromatography and mass spectrometry (LCMS/MS): The ultra-performance liquid chromatography mass spectrometry system (UPLC-MS/MS) consisted of a Shimadzu 8060NX mass spectrometer and Nexera Series UPLC (Shimadzu Scientific Instruments, Columbia, MD). Analyte separation was achieved utilizing an Acquity UPLC® BEH column (C18, 2.1×100 mm, 1.7 μm) equipped with an Acquity UPLC C18 guard column (Waters, Inc. Milford MA). The mobile phase consisted of water containing 0.1% formic acid (mobile phase A) and methanol (mobile phase B) at a flow rate of 0.25 mL/min operated at room temperature. The total run time was set to last 7.5 min with a gradient elution as follows: 35% B, increasing to 95% B over 3.5 minutes, then held constant for 3.0 minutes, and finally brought back to the initial condition of 35% B in 0.20 minutes followed by 1-minute re-equilibration. The injection volume (2 μL) was consistent for all samples. The auto-sampler chamber was maintained at 4° C. throughout the analysis.
Plasma sample preparation: Plasma samples were prepared by spiking 5 μL of the appropriate calibration (CC) and quality (QCs) control working stock into a 45 μL blank mouse plasma. The concentration of the CC ranged from 0.2-1000 ng/mL with the final concentrations of 0.2, 0.5, 1, 5, 10, 50, 100, 500, and 1000 ng/mL. A simple protein precipitation technique using Phree 96 well phospholipid elimination plate (Phenomenex Inc, Torrance CA.) was utilized to isolate analyte from the plasma matrix. The CC, QCs and study plasma samples were added to Phree 96 well plate and spiked with 10 μL of IS a working solution. The precipitation of the matrix proteins was carried out using 300 μL of ice-cold acetonitrile. The plate was again vortexed on mixmate at 950 rpm for 2 min followed by applied 5 psi positive pressure for 10 min (Resprep VM-96 Vacuum Manifold for 96-Well Plates, Catalog #25858) (Restek; Bellefonte, PA) to collect the supernatant. Two microliters of the reconstituted sample was injected into LC-MS/MS for analysis. […]

[2] = In vitro stability in simulated intestinal fluid (SIF); assay type: in vitro ADME; conditions: SIF for 2 h
Method: (§2) In vitro stability studies: Gastrointestinal (GI) fluid stability studies were performed in simulated gastric fluid (SGF) and simulated intestinal fluid (SIF). All the required media were prepared according to the USP guidelines. Mouse plasma stability were performed for neat-spiked and plasma spiked samples (pre-extraction) at 37° C. for 4 h. In addition to the analyte stability in matrix, at 48 h stability of the extracted samples was performed at 4° C. in the autosampler.

[3] = In vitro stability in simulated gastric fluid (SGF); assay type: in vitro ADME; conditions: SGF for 1 h
Method: as §2

[4] = In vitro metabolic stability in mouse liver microsomes; assay type: in vitro ADME; conditions: 1 μg/mL, % parent remaining
Method: (§3) In vitro metabolic stability in liver microsomes: Metabolic stability was assessed using mouse and human liver microsomes, (XenoTech, LLC, Lenexa, KS). Incubation of A1-r and 4r with the microsome fractions was performed in triplicate utilizing a concentration of 1 μg/mL as previously described. Serial samples (40 μL) were collected at selected time intervals and quenched with 300 μL of acetonitrile and then spiked with 10 μL of IS (0.5 μg/mL). All the samples were vortexed and centrifuged at 13,000×g for 15 min, and the supernatant was collected and transferred to an autosampler vial and injected (2 μL) onto the LC-MS/MS system. Testosterone, 7-HC and diclofenac were used as positive controls to ensure that the microsomes and incubation conditions were appropriate to conduct metabolism studies.

[5] = In vitro metabolic stability in human liver microsomes; assay type: in vitro ADME; conditions: 1 μg/mL, % parent remaining
Method: as §3

[6] = In vivo pharmacokinetic study, oral gavage; design: species or system BALB/c mice
Text: as §1
The MS/MS system was operated at unit resolution in the multiple reaction monitoring (MRM) in positive ESI mode, using precursor ion>product ion combinations of 427.20>105.10 for A1-r and 413.15>265.10 m/z for 4r. The mass spectrometer source settings were optimized to the following: nebulizer gas: 2.0 L/min; heating gas: 10 L/min; drying gas: 10 L/min; interface temperature: 300° C.; desolvation line temperature: 250° C.; heat block temperature: 400° C. Data acquisition and quantitation were performed using LabSolutions software Ver.5.99 (Shimadzu Scientific Inc, Columbia, MD).
Plasma sample preparation: Plasma samples were prepared by spiking 5 μL of the appropriate calibration (CC) and quality (QCs) control working stock into a 45 μL blank mouse plasma. The concentration of the CC ranged from 0.2-1000 ng/mL with the final concentrations of 0.2, 0.5, 1, 5, 10, 50, 100, 500, and 1000 ng/mL. A simple protein precipitation technique using Phree 96 well phospholipid elimination plate (Phenomenex Inc, Torrance CA.) was utilized to isolate analyte from the plasma matrix. The CC, QCs and study plasma samples were added to Phree 96 well plate and spiked with 10 μL of IS a working solution. The precipitation of the matrix proteins was carried out using 300 μL of ice-cold acetonitrile. The plate was again vortexed on mixmate at 950 rpm for 2 min followed by applied 5 psi positive pressure for 10 min (Resprep VM-96 Vacuum Manifold for 96-Well Plates, Catalog #25858) (Restek; Bellefonte, PA) to collect the supernatant. Two microliters of the reconstituted sample was injected into LC-MS/MS for analysis.
In vivo pharmacokinetic studies: Animal studies were approved by the University of Nebraska Medical Center (UNMC) Institutional Animal Care and Use Committee (IACUC protocol number 17-046-06-FC). BALB/c mice were purchased from Charles River Labs. Pharmacokinetic (PK) studies of A1-r and 4r were conducted in BALB/c mice. Animals were housed in the University of Nebraska Medical Center animal facility, for at least 7 days prior to the experiments, in order to acclimatize the animals to the laboratory conditions, at a temperature of 23-24° C., relative humidity of 40-70% and 12/12 h light/dark cycles with free access to food and water. The dosing solution was made of DMSO-Polyethylene glycol 400 (PEG400)-Propylene glycol (PG)-EtOH-Cremophore-PBS (2/20/10/10/5/53% v/v). Compound A1-r or 4r (10 mg/kg) was administered separately by oral gavage. After dosing, approximately 50 μL of blood was collected from the maxillary vein at 5, 15, 30 minutes and 1, 2, 7, and 24 hr (5 mice/group/per time point). A total of three blood samples were collected, with the third blood sample a terminal collection. Plasma was separated by centrifugation at 4,000×g at 4° C. for 10 minutes. The collected plasma samples were stored at −80° C. until analysis. […]

[7] = Table 2, recombinant enzyme, S-tetralol at Km, read-out: IC50 ± SD AKR1C3
[8] = after oral administration (10 mg/kg) of 4r, Balb/c mice, plasma, mean ± SD, n = 5
[9] = after oral administration (10 mg/kg) of A1-r, Balb/c mice, mean ± SD, n = 5
[10] = after oral administration (10 mg/kg) of A1-r, Balb/c mice, plasma, mean ± SD, n = 5

Row | Structure (SMILES) | IC50 (AKR1C2) | IC50 (AKR1C4) | IC50 (AKR1C1) | selectivity over AKR1C2 (AKR1C3) | IC50 (AKR1C3; read-out: IC50 AKR1C3) | Selectivity 1C2:1C3 (AKR1C3; Table 2) | IC50 (AKR1C3; [7]) | further results
1 | Cc1ccc(CNC(=O)c2cc(/C=C/C(=O)O)cc(-c3ccc4ccccc4c3)c2)cc1 [Compound A1-o, (E)-3-(3-((4-Methylbenzyl)carbamoyl)-5-(naphthalen-2-yl)phenyl)acrylic acid] | 14 ± 4.1 µM | 6.1 ± 0.47 µM | 78 ± 9.3 µM | 140 fold | 0.1 µM |  |  | 
2 | Cc1ccc(CNC(=O)c2cc(/C=C/C(=O)O)cc(-c3ccc4cccnc4c3)c2)cc1 [Compound A1-p, (E)-3-(3-((4-Methylbenzyl)carbamoyl)-5-(quinolin-7-yl)phenyl)acrylic acid] | 12 ± 2.8 µM | 22 ± 2.3 µM | 80 ± 13 µM |  |  | 109 | 0.11 ± 0.017 µM | 
3 | Cc1ccc(CNC(=O)c2cc(/C=C/C(=O)O)cc(-c3ccc4nccnc4c3)c2)cc1 [Compound A1-q, (E)-3-(3-((4-Methylbenzyl)carbamoyl)-5-(quinoxalin-6-yl)phenyl)acrylic acid] | 12.5 ± 2.1 µM | 31 ± 2.9 µM | 70 ± 48 µM |  | 0.094 µM | 133 |  | 
4 | Cc1ccc(CNC(=O)c2cc(/C=C/C(=O)O)cc(-c3ccc4ncnn4c3)c2)cc1 [Compound A1-r, (E)-3-(3-([1,2,4]triazolo[1,5-a]pyridin-6-yl)-5-((4-methylbenzyl)carbamoyl)phenyl)acrylic acid] | 62 ± 21 µM | 43 ± 6 µM | > 100 µM |  |  | 1216 | 0.051 ± 0.006 µM | time stable in mouse plasma [1]: over 240 minutes; stability in simulated intestinal fluid (SIF) [2]: stable; stability in simulated gastric fluid (SGF) [3]: stable; metabolic stability in MLM [4]: stable; metabolic stability in HLM [5]: stable; AUC0-t [6, 8]: 6382.8 ng·h/mL; Cmax [6, 8]: 11599.4 ng/mL; Tmax [6, 8]: 12 min; CI/F [6, 9]: 323 mL/min/kg; Extrapolated AUC % [6, 9]: 28.8%; Vz/F [6, 9]: 405.0 L/kg; AUC0-INF [6, 10]: 515.1 ng·h/mL; AUC0-t [6, 10]: 367.6 ng·h/mL; Cmax [6, 10]: 174.8 ng/mL; Tmax [6, 10]: 6 min; t1/2 [6, 10]: 864 min; detection at the last study point (24 hours) ([6]; oral 10 mg/Kg 4r, 24 hours): detected; time at which detected in plasma after oral administration ([6]; oral 10 mg/Kg, male Balb/C mice): ≤ 5 min
5 | Cc1ccc(CNC(=O)c2cc(/C=C/C(=O)O)cc(-c3ccc4c(c3)OCCO4)c2)cc1 [Compound A1-s, (E)-3-(3-(2,3-Dihydrobenzo[b][1,4]dioxin-6-yl)-5-((4-methylbenzyl)carbamoyl)phenyl)acrylic acid] | 22 ± 4.5 µM | 53 ± 7.1 µM | > 100 µM | 200 fold |  |  | 0.11 ± 0.011 µM | 
6 | Cc1ccc(CNC(=O)c2cc(/C=C/C(=O)O)cc(-c3ccc4c(c3)OCO4)c2)cc1 [Compound A1-t, (E)-3-(3-(Benzo[d][1,3]dioxol-5-yl)-5-((4-methylbenzyl)carbamoyl)phenyl)acrylic acid] | 36 ± 9.7 µM | 16 ± 1.6 µM | > 100 µM |  | 0.11 µM |  |  | 
7 | Cc1ccc(CNC(=O)c2cc(/C=C/C(=O)O)cc(-c3ccc(-n4c5ccccc5c5ccccc54)cc3)c2)cc1 [Compound A1-v, (E)-3-(4′-(9H-Carbazol-9-yl)-5-((4-methylbenzyl)carbamoyl)-[1,1′-biphenyl]-3-yl)acrylic acid] | 31 ± 2.8 µM | 11 ± 3.1 µM | 36 ± 5.5 µM | 221 fold |  |  | 0.14 ± 0.015 µM | 
8 | C/C=C/Cc1cc(/C=C/C(=O)O)cc(C(=O)NCc2ccc(C)cc2)c1 [Compound A1-z, (E)-3-(3-((E)-But-2-en-1-yl)-5-((4-methylbenzyl)carbamoyl)phenyl)acrylic acid] | 39 ± 9 µM | 70 ± 11 µM | > 100 µM | 354 fold | 0.11 µM |  |  | 
